# Laboratory results as given in patent publication US8796249B2, “TGR5 modulators and methods of use thereof” (Intercept Pharmaceuticals, Inc., priority 2008, dated 2014).
# pEC50: −log10 of the molar value. Marks after values point to notes of the source that are not given here.
# Key:
# [1] = […] NaCl water solution; values from literature; cited from earlier work
# [2] = target: T1, PXR (Homo sapiens, UniProt O75469); experiment: PXR ligands competition assay (binding assay); conditions: ligands competition assay (binding assay); ref standard SR-12183
# T1 sequence (O75469 1-434): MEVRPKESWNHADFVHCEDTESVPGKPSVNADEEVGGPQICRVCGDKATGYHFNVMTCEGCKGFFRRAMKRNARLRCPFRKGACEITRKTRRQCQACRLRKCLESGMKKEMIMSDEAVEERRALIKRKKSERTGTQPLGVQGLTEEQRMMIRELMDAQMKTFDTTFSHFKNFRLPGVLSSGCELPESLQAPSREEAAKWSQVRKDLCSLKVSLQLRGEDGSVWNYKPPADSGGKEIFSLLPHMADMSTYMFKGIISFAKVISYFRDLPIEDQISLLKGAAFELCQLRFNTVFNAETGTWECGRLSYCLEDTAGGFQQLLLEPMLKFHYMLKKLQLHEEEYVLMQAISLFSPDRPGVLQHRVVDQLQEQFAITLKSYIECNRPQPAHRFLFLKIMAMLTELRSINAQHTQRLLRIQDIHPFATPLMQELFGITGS
# Procedure: (§1) The selectivity of compounds of the invention was evaluated using assay methods known in the art. Specifically, the following assay methods were used: • FXR and LXR: Coactivator Recruitment (alphascreen); • TGR5: cAMP level on human intestinal cell line (NCI-H716); • PXR: Ligands Competition assay (Binding Assay) • CAR: Coactivator Recruitment (Lanthascreen)
# [3] = test system: HepG2 cell; experiment: HepG2 cell cytotoxicity, ATP decrease; format: cell-based; conditions: read-out: HepG2 cell Cytotoxicity ATP decrease EC50
# Procedure: Compounds of the invention were evaluated for cytotoxicity using standard methods known in the art. Specifically, cytotoxicity was evaluated using HEPG2 cells and monitoring ATP decrease and determining the EC50 value. […]
# [4] = target: T2, LXRα (Homo sapiens, UniProt Q13133); experiment: LXR coactivator recruitment (alphascreen); format: biochemical; conditions: ref standard T0901317
# T2 sequence (Q13133 1-447): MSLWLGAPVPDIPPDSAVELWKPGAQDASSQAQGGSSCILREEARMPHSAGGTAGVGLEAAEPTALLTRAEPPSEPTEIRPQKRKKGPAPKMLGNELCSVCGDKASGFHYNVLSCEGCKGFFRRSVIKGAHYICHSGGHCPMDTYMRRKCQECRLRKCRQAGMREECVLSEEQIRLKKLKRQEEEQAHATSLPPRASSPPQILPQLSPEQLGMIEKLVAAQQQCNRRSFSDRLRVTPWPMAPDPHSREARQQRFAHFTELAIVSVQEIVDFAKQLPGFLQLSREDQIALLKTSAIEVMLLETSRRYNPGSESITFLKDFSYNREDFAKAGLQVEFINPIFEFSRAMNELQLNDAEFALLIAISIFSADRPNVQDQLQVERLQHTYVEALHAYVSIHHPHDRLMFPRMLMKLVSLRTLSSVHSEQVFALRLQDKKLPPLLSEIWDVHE
# Procedure: as §1
# [5] = BA as protonated species; values from literature; cited from earlier work
smiles,measurement,setting,value
C[C@H](CCC(=O)O)[C@H]1CC[C@H]2[C@@H]3[C@H](O)C[C@@H]4C[C@H](O)CC[C@]4(C)[C@H]3C[C@H](O)[C@]12C [CA],CMC […] Na+,[1],11* mM
same,PXR EC50,[2],No
same,pEC50,[3],< 3.00
same,LXRα EC50,[4],No
same,Ws (water solubility),[5],273* μM
